Two compounds from ChEMBL document CHEMBL1201862, “PubChem BioAssay data set” (2004) can be followed below.

The structures appear in SMILES notation. Calls of active or inactive are those of the source.

One assay deals with Trypsin (Sus scrofa, UniProt P00761). The assay is described as follows: trypsin protease activity blockade – biochemical, quenched peptide fluorescence, cherry-pick, selectivity assay for Rce1 protease inhibitor project, dose response (AID 488789).
In assay [1] the target is Melanin-concentrating hormone receptor 1 (Homo sapiens, UniProt Q99705). Nature of the assay: Late-stage fluorescence-based counterscreen for antagonists of the G-protein coupled receptor 7 (GPR7): cell-based dose response assay to identify antagonists of the melanin-concentrating hormone receptor 1 (MCHR1). [Related pubchem assays (depositor defined):AID1861, AID1880, AID1952, AID2148, AID2251, AID2257, AID485339]. Format: functional. A general note: A counterscreen serves to expose hits that act by an unwanted route or on another target.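 Note: stimulated with 30 nM MCH peptide agonist.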
Sequence of Melanin-concentrating hormone receptor 1 (Q99705 whole entry): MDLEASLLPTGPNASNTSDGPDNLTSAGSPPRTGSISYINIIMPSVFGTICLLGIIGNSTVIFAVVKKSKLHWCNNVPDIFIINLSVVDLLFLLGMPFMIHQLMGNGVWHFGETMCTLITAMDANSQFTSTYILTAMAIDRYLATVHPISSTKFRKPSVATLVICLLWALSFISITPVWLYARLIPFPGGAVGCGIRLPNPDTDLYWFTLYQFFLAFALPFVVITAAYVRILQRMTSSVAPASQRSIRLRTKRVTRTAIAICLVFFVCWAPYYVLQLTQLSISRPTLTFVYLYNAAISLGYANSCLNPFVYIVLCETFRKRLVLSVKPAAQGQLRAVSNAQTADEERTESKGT

The target of assay [2] is T1, Neuropeptides B/W receptor type 1 (Homo sapiens, UniProt P48145).
T1 sequence (P48145 whole entry): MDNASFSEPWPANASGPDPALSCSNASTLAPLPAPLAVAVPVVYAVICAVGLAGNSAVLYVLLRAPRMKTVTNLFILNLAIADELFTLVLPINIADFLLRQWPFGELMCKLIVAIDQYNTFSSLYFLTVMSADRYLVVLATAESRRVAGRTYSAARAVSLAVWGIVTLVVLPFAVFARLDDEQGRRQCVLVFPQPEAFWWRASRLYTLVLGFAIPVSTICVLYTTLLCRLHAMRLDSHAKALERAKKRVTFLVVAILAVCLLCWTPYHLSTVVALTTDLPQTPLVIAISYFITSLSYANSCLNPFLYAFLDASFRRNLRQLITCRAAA
Nature of the assay: human NPBW1 receptor blockade, IC50 – cell-based, fluorescence, dose response, late-stage follow-up (AID 463251). Format: functional.

Sequence of Trypsin (P00761 whole entry): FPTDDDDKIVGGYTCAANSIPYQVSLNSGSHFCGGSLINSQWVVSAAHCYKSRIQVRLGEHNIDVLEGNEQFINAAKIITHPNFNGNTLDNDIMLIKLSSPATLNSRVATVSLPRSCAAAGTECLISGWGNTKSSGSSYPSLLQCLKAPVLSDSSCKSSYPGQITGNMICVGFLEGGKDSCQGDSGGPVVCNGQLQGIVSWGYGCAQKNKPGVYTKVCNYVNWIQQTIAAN

By AC50 is commonly meant the concentration giving half of the maximal activity seen. `Cc1ccc(C(=O)N2N=C(c3ccccc3O)CC2c2ccccc2)cc1` (stereo not drawn): on Trypsin, the concentration at half-maximal activity (AC50) is 67.6 µM (active).

The term IC50 denotes the concentration needed to halve the response being measured. With `COc1ccc(Oc2c(Cl)cnn(-c3ccc(I)cc3)c2=O)cc1`, the IC50 was 4.7 µM (active) in assay [1] and 1 µM (active) in assay [2].
